Measured values published in patent US12465610B2, “Compounds and methods for the treatment of PKR-associated diseases” (Board of Regents, The University of Texas System, priority 2019, dated 2025).

Tests used:
PI4KIIIa = PI4KIIIa (Homo sapiens, UniProt P42356); assay: ADP-Glo kinase assay, high-throughput enzymatic screening (Reaction Biology); assay type: biochemical
PI3Ka = PI3Ka (Homo sapiens, UniProt P42336); assay: as above; assay type: biochemical
PI3Kb = PI3Kb (Homo sapiens, UniProt P42338); assay: as above; assay type: biochemical
Chain of PI3Kb (P42338 whole entry): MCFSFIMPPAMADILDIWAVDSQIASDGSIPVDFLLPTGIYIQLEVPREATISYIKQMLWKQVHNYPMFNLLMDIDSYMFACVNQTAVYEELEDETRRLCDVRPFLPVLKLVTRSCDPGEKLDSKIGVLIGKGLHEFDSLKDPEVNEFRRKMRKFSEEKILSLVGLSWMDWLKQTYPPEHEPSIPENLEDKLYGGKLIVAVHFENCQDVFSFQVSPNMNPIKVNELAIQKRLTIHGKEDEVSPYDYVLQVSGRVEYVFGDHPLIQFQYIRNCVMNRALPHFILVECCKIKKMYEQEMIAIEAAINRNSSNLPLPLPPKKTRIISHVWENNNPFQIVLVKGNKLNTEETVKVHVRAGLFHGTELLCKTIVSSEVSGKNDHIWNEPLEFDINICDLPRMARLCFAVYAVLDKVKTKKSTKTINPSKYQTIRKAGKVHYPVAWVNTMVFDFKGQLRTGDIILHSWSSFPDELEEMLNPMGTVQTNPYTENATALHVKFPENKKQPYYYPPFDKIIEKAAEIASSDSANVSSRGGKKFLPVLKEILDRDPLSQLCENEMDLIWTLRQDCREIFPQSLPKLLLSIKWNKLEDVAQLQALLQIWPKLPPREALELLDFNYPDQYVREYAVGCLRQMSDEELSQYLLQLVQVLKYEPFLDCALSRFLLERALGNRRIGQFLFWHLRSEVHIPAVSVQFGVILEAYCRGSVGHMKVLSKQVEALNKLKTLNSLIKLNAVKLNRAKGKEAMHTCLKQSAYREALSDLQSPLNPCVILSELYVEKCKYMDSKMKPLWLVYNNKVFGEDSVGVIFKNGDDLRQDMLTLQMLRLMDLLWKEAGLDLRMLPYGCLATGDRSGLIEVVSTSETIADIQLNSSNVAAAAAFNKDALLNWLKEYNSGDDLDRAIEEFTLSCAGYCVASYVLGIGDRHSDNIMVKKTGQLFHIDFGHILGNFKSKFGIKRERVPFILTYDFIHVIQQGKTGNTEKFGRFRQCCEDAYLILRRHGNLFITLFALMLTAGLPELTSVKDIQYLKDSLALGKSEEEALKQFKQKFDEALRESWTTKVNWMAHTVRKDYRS
Chain of PI3Kb (P27986 whole entry partner): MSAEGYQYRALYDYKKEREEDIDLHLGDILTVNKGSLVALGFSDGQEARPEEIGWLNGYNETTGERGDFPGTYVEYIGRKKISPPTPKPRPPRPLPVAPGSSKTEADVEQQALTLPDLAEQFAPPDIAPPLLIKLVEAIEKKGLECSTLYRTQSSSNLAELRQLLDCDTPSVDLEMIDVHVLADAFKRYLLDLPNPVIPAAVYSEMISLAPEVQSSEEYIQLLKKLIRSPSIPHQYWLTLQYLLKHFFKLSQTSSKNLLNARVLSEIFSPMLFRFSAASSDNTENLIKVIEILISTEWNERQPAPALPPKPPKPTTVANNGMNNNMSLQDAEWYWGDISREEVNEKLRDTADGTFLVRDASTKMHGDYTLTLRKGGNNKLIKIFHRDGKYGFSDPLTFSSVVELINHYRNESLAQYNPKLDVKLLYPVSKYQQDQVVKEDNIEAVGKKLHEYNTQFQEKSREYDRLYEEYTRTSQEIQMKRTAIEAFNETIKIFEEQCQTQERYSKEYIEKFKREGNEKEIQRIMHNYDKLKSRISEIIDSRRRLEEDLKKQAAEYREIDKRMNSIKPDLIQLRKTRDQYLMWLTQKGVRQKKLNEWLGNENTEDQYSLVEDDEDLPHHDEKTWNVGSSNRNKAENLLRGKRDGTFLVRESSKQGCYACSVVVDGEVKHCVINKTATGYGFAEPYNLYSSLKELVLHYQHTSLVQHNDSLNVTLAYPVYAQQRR

A549 = assay: SRB cell viability assay; assay type: cell-based, human; details: 72 hours after treatment
Procedure: (§1) The effects of Pac 1 and Pac 2 were next examined on PKR protein expression in HeLa cells using Western blot analysis. […] No reduction in normal cell viability was observed after treatment with Pac 1 or Pac 2 (FIGS. 5F and G). […] Because most of the cancer cell lines that were tested were more sensitive to Pac 1 than to Pac 2, Pac 1 was further investigated.
(§2) Cell viability assays: For SRB assays, cells (2-8×10^3/well in 100 μL of culture medium) were seeded in 96-well flat-bottomed plates and treated the next day with compounds at the indicated concentrations. After the indicated treatments, cells were fixed with trichloroacetic acid. The protein was stained with SRB, and the optical density at 570 nm was determined. Relative cell viability was calculated by setting the viability rate of the control cells (exposed only to dimethyl sulfoxide) at 100% and comparing the viability of the treated cells with that of the controls. The experiments were performed at least three times for each cell line. The viability of leukemia cell lines was determined by using a 3-(4,5-dimethylthiazol-2-yl)-2,5-diphenyltetrazolium bromide assay.
(§3) For the SRB assay, cells (2-8×10^3/well in 100 μL of culture medium) were seeded in 96-well flat-bottomed plates and treated the next day with compounds at the indicated concentrations. After treatment for the indicated times, cells were fixed with trichloroacetic acid. The cells were stained using SRB, and the optical density at 570 nm was determined. Relative cell viability was determined by setting the viability of the control cells (exposed only to dimethyl sulfoxide) at 100% and comparing their viability with that of the treated cells. The experiments were performed at least three times for each cell line.

H1299 = assay: SRB cell viability assay; assay type: cell-based, human; details: 72 hours after treatment
Procedure: as §1, §2, §3

breast cancer cell lines = assay: SRB cell viability assay; assay type: cell-based, human; details: 72 hours after treatment
Procedure: as §1, §2, §3

[1] = system: normal cells (HBE, human mammary epithelial cells); assay: SRB cell viability assay, normal cells; assay type: cell-based; details: 72 hours after treatment, HBE and human mammary epithelial cells
Procedure: as §1, §2
For the SRB assay, cells (2-8×10^3/well in 100 μL of culture medium) were seeded in 96-well flat-bottomed plates and treated the next day with compounds at the indicated concentrations. […] The cells were stained using SRB, and the optical density at 570 nm was determined. […]

LOVO colon cancer cells = assay: SRB cell viability assay; assay type: cell-based, human; details: 72 hours after treatment
From the text: PKR and PI4K2A expression are associated with poor prognosis in cancer patients: PKR and PI4K2A are encoded by the EIF2AK2 and PI4K2A genes, respectively. […] It was also examined the expression of PKR using immunohistochemical staining of five normal skin and five breast tumor samples and observed that all of the breast tumor cells had high cytoplasmic PKR expression (FIG. 7C). However, all of the normal skin cells had low cytoplasmic PKR expression, and some of them had high nuclear PKR expression. […] Furthermore, the association between EIF2AK2 or PI4K2A gene expression and overall survival was evaluated in colorectal cancer patients using the TCGA data set. […]
as §2, with “After the indicated treatments, cells were fixed with trichloroacetic acid.” left out, “The experiments were performed at least three times for each cell line.” left out, “assay. […]” for “assay.”

[2] = system: 127 human lung cancer cell lines; assay: SRB assay, oncopanel of 127 lung cancer cell lines; assay type: cell-based
From the text: Antiproliferative effect of Pac 1 and Pac 2 on an oncopanel of lung cancer cell lines: The antiproliferative effect of treatment with Pac1 were further tested on an oncopanel of 127 cell lines of various lung tumor origins. […] RPPA analysis of Pac 1-sensitive cells identified correlation with higher expression of GSK3 (FIG. 16B), and Pac 1-resistant cells correlation with higher expression of IRS1, Caveolin and PKCA (PS657) (FIG. 16B). Analyzed the Pac1 sensitivity with gene mutation observed that low Pac 1 IC50 correlated with VCAN and ZNF804A mutation, and high Pac 1 IC50 correlated with LOXHD1 and CDH12 mutation (FIG. 16C). VCAN mutant lung cancer cells are sensitive to treatment of Pac 1.
as §2

AP-1/2/3 complexes = assay: Western blot of AP-1, AP-2 and AP-3 complex-associated proteins; assay type: cell-based, human; details: H1299 and MDA-MB-231 cells
From the text: (§4) Western blotting was next used to evaluate proteins known to be involved in AP-1/2/3 complexes in lung (H1299) and breast (MDA-MB-231) cancer cells after treatment with Pac 1 or Pac 2. […] AP-1 and AP-2 mediate protein sorting in the endosome, trans-Golgi network, and plasma membrane. […] The impact of Pac 1 was then investigated on lysosome function by staining cells with the acidophilic dye LysoTracker Red.

[3] = system: acidic vesicular organelles (lysosomes); assay: LysoTracker Red staining; assay type: cell-based, human; details: HeLa, H1299, and MDA-MB-231 cells, 5 μM, 72 hours
From the text: as §4
LysoTracker red staining, confocal microscopy, and tem: The acidophilic dye LysoTracker Red stains lysosomes. Cancer cells (1×10^5 cells/well) were grown on two-well chamber slides (Becton Dickinson Labware, Bedford, MA) to 70% confluence and then treated with PKR siRNA or control siRNA. Forty-eight hours later (when cells had grown to 70-80% confluence), the medium was replaced with medium containing 75 nM LysoTracker Red. The cells were incubated with LysoTracker Red for 1 hour and then rinsed one time with 1 mL of PBS. The cells were kept in PBS for microscopic imaging.

[4] = target: PKR coimmunoprecipitated with PI4K2A (Homo sapiens, UniProt Q9BTU6); assay type: cell-based
Chain of PKR coimmunoprecipitated with PI4K2A (Q9BTU6 whole entry, looked up): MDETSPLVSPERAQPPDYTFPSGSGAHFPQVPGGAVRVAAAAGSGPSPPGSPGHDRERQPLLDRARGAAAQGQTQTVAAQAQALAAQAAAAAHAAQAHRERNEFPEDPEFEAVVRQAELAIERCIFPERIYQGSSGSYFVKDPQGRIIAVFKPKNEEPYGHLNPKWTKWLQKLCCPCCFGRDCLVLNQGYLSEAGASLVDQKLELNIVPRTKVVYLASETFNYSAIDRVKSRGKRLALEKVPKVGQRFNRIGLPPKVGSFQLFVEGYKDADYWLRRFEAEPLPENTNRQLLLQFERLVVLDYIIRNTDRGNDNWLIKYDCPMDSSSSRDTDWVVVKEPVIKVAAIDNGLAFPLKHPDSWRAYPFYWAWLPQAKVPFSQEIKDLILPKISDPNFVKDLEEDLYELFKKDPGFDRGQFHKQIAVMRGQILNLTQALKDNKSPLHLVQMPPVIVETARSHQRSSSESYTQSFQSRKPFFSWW

[5] = system: p-4EBP1, eEF2K, GSK3ab, IRS1 and Caveolin; assay: RPPA assay of 156 proteins; assay type: cell-based, human; details: H1299 and A549 cells, 72 hours; Pac 1 5 and 10 μM, Pac 2 10 μM
Procedure: The translation regulator eukaryotic […] 4EBP1 is phosphorylated by and is a substrate of PIM3 and PIM1. To further determine whether treatment with Pac 1 affects PIM3/1 downstream targets, the expression of 156 proteins in H1299 and A549 cells was analyzed after treatment with Pac 1 or Pac 2 using an RPPA assay. […] Others reported cross-talk of PP2A with PKR and 4EBP1 protein in cancer cells.

Toxicity in mice = details: 50 mg/kg intravenously daily for 7 days
PI4K2A kinase = PI4K2A kinase (Homo sapiens, UniProt Q9BTU6); assay: ADP-Glo kinase assay, high-throughput enzymatic screening (Reaction Biology)
Chain of PI4K2A kinase (Q9BTU6 whole entry): as the sequence (Q9BTU6 whole entry, looked up) above

Chain of PI3Ka (P42336 whole entry): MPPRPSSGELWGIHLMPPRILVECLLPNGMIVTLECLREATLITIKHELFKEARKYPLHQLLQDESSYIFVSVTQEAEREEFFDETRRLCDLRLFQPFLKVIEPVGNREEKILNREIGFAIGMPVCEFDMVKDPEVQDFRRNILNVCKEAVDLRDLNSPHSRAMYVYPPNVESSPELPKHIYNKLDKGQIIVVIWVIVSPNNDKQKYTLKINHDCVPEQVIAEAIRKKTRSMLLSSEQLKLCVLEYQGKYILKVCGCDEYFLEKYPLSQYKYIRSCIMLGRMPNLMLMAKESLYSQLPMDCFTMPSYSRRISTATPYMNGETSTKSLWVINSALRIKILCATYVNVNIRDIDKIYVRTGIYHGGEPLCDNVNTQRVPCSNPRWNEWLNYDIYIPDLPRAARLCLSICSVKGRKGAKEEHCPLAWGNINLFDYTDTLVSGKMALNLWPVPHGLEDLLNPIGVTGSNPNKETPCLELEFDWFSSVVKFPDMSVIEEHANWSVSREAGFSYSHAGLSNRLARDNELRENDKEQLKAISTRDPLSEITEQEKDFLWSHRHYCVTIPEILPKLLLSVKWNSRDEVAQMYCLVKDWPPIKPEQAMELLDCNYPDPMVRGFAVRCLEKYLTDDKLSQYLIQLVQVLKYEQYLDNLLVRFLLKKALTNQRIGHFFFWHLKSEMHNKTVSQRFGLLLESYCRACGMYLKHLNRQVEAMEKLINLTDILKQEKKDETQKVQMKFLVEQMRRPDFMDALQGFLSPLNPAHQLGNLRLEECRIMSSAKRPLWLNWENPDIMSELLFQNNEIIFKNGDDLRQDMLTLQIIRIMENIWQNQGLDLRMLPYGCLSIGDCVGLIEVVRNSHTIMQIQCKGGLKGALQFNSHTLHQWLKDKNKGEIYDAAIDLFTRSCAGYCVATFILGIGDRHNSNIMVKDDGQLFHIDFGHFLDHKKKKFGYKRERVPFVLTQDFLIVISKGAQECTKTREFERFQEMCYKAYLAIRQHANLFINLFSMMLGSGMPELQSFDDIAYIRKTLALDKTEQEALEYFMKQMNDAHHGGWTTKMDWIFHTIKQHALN
Chain of PI3Ka (P27986 whole entry partner): as the sequence (P27986 whole entry partner) above

O=C(N/N=C\c1c(O)ccc2ccccc12)c1cccc2cc[nH]c12 [Pac 1, N′—[(Z)-(2-Hydroxy-1-naphthyl)methylene]-1H-indole-7-carbohydrazide]
inhibition of kinase activity (PI4KIIIa): not other kinases
inhibition of kinase activity (PI3Ka): not other kinases
inhibition of kinase activity (PI3Kb): not other kinases
sensitivity (viability) of A549 cells (A549): more sensitive to treatment with Pac 1 than that with Pac 2
sensitivity (viability) of H1299 cells (H1299): more sensitive to treatment with Pac 1 than that with Pac 2
growth of breast cancer cell lines (breast cancer cell lines): inhibited the growth
normal cell viability [1]: No reduction
growth of LOVO colon cancer cells (LOVO colon cancer cells): inhibited the growth
IC50 ([2]; Homo sapiens, sensitive cell lines of the oncopanel of 127 lung cancer cell lines): 10 to 950 nM
sensitivity of VCAN mutant lung cancer cells ([2]; VCAN mutants versus VCAN wild-type cells): sensitive
share of cell lines sensitive ([2]; oncopanel of 127 cell lines of various lung tumor origins): Sixty-five
PI4K2A, Lamp1, Lamp2, and AP-3δ expression (AP-1/2/3 complexes; 5 μM, 72 hours): significantly inhibited
expression of proteins associated with AP-1 (Rab7α, HSC70, AP-1γ) or AP-2 (AP-2α) (AP-1/2/3 complexes; 72 hours after treatment): No reduction of expression
numbers of acidic vesicular organelles [3]: substantially decreased
amount of PKR coimmunoprecipitated with PI4K2A [4]: decreased to undetectable levels
levels of p-4EBP1 (S65, T37, and T70), eEF2K, GSK3ab, IRS1 and Caveolin [5]: significantly inhibited
blood chemistry: aspartate aminotransferase, SGOT, SGPT, alkaline phosphatase, creatine kinase, lactate dehydrogenase levels (Toxicity in mice): normal
histopathologic examination of major organs (Toxicity in mice; heart, lungs, liver, kidneys, pancreas, spleen): no significant changes in any major organs
IC50 (PI4K2A kinase): 2500 nM
